In PubChem BioAssay (NCI):
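1) Cells in 96-well plates. 2) Compound, 48 h, 5 concentrations. 3) Linear interpolation between surrounding doses. 4) Unreached endpoint = highest concentration. The concentration for full growth arrest is given as TGI.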

Legend:
Assay in all cases: DTP human tumour cell line panel, 48 h
[1] = test system: A549 NSCLC
[2] = test system: MDA-MB-231 breast
[3] = test system: MDA-MB-435
[4] = test system: EKVX NSCLC
[5] = test system: NCI-H522 lung
[6] = test system: SK-MEL-5 melanoma
[7] = test system: SNB-19 CNS
[8] = test system: MALME-3M melanoma
[9] = test system: PC-3 prostate
[10] = test system: SW-620 colon
[11] = test system: SK-OV-3 ovarian
[12] = test system: NCI-H226 lung
[13] = test system: HOP-92 NSCLC
[14] = test system: KM12 colon
[15] = test system: 786-0 renal
[16] = test system: OVCAR-4 ovarian
[17] = test system: SR leukemia
[18] = test system: HCT-116 colon
[19] = test system: UACC-62 melanoma
[20] = test system: HS 578T breast
[21] = test system: UO-31 renal
[22] = test system: T-47D breast
[23] = test system: COLO 205 colon
[24] = test system: TK-10 renal
[25] = test system: MDA-N
[26] = test system: RXF 393 renal
[27] = test system: HL-60(TB) leukemia
[28] = test system: U251 CNS
[29] = test system: MCF7 breast
[30] = test system: SF-539 CNS
[31] = test system: K-562 leukemia
[32] = test system: SF-268 CNS
[33] = test system: SNB-75 CNS
[34] = test system: HT29 colon
[35] = test system: NCI/ADR-RES ovarian
[36] = test system: ACHN renal
[37] = test system: SN12C renal
[38] = test system: HCC-2998 colon
[39] = test system: RPMI-8226 leukemia
[40] = test system: IGROV1 ovarian
[41] = test system: UACC-257 melanoma
[42] = test system: HCT-15 colon
[43] = test system: OVCAR-5 ovarian
[44] = test system: SK-MEL-2 melanoma
[45] = test system: SK-MEL-28 melanoma
[46] = test system: SF-295 CNS
[47] = test system: MOLT-4 leukemia
[48] = test system: HOP-62 NSCLC
[49] = test system: NCI-H23 lung
[50] = test system: CAKI-1 renal
[51] = test system: OVCAR-8 ovarian
[52] = test system: LOX IMVI melanoma
[53] = test system: NCI-H460 lung
[54] = test system: M14 melanoma
[55] = test system: BT-549 breast
[56] = test system: A498 renal
[57] = test system: CCRF-CEM leukemia
[58] = test system: DU-145 prostate
[59] = test system: OVCAR-3 ovarian

Q: Which results are given for COc1ccc2c(c1)CN1C(=N2)CSC1c1c(Cl)cccc1[N+](=O)[O-] (stereo not given)?
A: TGI [1]: > 100 µM; TGI [2]: 34.6 µM; TGI [3]: 47.5 µM; TGI [4]: 77.2 µM; TGI [5]: 68.6 µM; TGI [6]: 27 µM; TGI [7]: > 100 µM; TGI [8]: > 100 µM; TGI [9]: 66.3 µM; TGI [10]: 50.6 µM; TGI [11]: > 100 µM; TGI [12]: 32.2 µM; TGI [13]: 55.7 µM; TGI [14]: 44.2 µM; TGI [15]: 76.9 µM; TGI [16]: > 100 µM; TGI [17]: 39 µM; TGI [18]: 29.5 µM; TGI [19]: 37 µM; TGI [20]: > 100 µM; TGI [21]: 65.1 µM; TGI [22]: > 100 µM; TGI [23]: 67.9 µM; TGI [24]: 84.1 µM; TGI [25]: 40.9 µM; TGI [26]: 52.2 µM; TGI [27]: 43.8 µM; TGI [28]: 37 µM; TGI [29]: 30 µM; TGI [30]: 33 µM; TGI [31]: 61.1 µM; TGI [32]: 53.8 µM; TGI [33]: 74.3 µM; TGI [34]: 38.1 µM; TGI [35]: 46.4 µM; TGI [36]: > 100 µM; TGI [37]: 35 µM; TGI [38]: 41.6 µM; TGI [39]: 34.1 µM; TGI [40]: > 100 µM; TGI [41]: 42.6 µM; TGI [42]: 40.3 µM; TGI [43]: 95.7 µM; TGI [44]: 34.1 µM; TGI [45]: 44.3 µM; TGI [46]: 52.6 µM; TGI [47]: 34.8 µM; TGI [48]: > 100 µM; TGI [49]: 56.1 µM; TGI [50]: 64.2 µM; TGI [51]: > 100 µM; TGI [52]: 34.9 µM; TGI [53]: 31.5 µM; TGI [54]: 37.3 µM; TGI [55]: 31.9 µM

Q: For CNc1cc(OCc2ccccc2)c(OC)cc1C(=O)N1CCC[C@H]1CO, which TGI [56] is on record?
A: The TGI was > 100 µM.

Q: What about the TGI [1] of the same compound?
A: Its TGI is > 100 µM.

Q: What about the TGI [2] of the same compound?
A: The TGI was > 100 µM.

Q: What about the TGI [3] of the same compound?
A: Its TGI is > 100 µM.

Q: And the TGI [4]?
A: The TGI was > 100 µM.

Q: And the TGI [5]?
A: Its TGI is > 100 µM.

Q: And the TGI [6]?
A: The TGI was > 100 µM.

Q: What about the TGI [7] of the same compound?
A: Its TGI is > 100 µM.

Q: And the TGI [8]?
A: The TGI was > 100 µM.

Q: What about the TGI [9] of the same compound?
A: The TGI was > 100 µM.

Q: What about the TGI [10] of the same compound?
A: Its TGI is > 100 µM.

Q: And the TGI [57]?
A: Its TGI is > 100 µM.

Q: And the TGI [11]?
A: Its TGI is > 100 µM.

Q: What about the TGI [12] of the same compound?
A: The TGI was > 100 µM.

Q: And the TGI [14]?
A: Its TGI is > 100 µM.

Q: What about the TGI [15] of the same compound?
A: Its TGI is > 100 µM.

Q: What about the TGI [16] of the same compound?
A: The TGI was > 100 µM.

Q: What about the TGI [18] of the same compound?
A: The TGI was > 100 µM.

Q: What about the TGI [19] of the same compound?
A: Its TGI is > 100 µM.

Q: And the TGI [20]?
A: The TGI was > 100 µM.

Q: What about the TGI [21] of the same compound?
A: Its TGI is > 100 µM.

Q: And the TGI [22]?
A: Its TGI is > 100 µM.

Q: What about the TGI [23] of the same compound?
A: The TGI was > 100 µM.

Q: And the TGI [24]?
A: Its TGI is > 100 µM.

Q: What about the TGI [25] of the same compound?
A: The TGI was > 100 µM.

Q: And the TGI [26]?
A: Its TGI is > 100 µM.

Q: And the TGI [27]?
A: Its TGI is > 100 µM.

Q: What about the TGI [28] of the same compound?
A: The TGI was > 100 µM.

Q: And the TGI [29]?
A: Its TGI is > 100 µM.

Q: And the TGI [30]?
A: Its TGI is > 100 µM.

Q: What about the TGI [32] of the same compound?
A: The TGI was > 100 µM.

Q: And the TGI [33]?
A: The TGI was > 100 µM.

Q: What about the TGI [34] of the same compound?
A: The TGI was > 100 µM.

Q: What about the TGI [35] of the same compound?
A: The TGI was > 100 µM.

Q: What about the TGI [36] of the same compound?
A: The TGI was > 100 µM.

Q: What about the TGI [37] of the same compound?
A: The TGI was > 100 µM.

Q: And the TGI [58]?
A: Its TGI is > 100 µM.

Q: And the TGI [40]?
A: The TGI was > 100 µM.

Q: And the TGI [41]?
A: Its TGI is > 100 µM.

Q: And the TGI [42]?
A: Its TGI is > 100 µM.

Q: What about the TGI [43] of the same compound?
A: The TGI was > 100 µM.

Q: What about the TGI [44] of the same compound?
A: Its TGI is > 100 µM.

Q: What about the TGI [45] of the same compound?
A: Its TGI is > 100 µM.

Q: What about the TGI [46] of the same compound?
A: Its TGI is > 100 µM.

Q: And the TGI [47]?
A: The TGI was > 100 µM.

Q: And the TGI [48]?
A: The TGI was > 100 µM.

Q: And the TGI [49]?
A: The TGI was > 100 µM.

Q: What about the TGI [50] of the same compound?
A: Its TGI is > 100 µM.

Q: And the TGI [51]?
A: The TGI was > 100 µM.

Q: What about the TGI [52] of the same compound?
A: The TGI was > 100 µM.

Q: What about the TGI [54] of the same compound?
A: The TGI was > 100 µM.

Q: And the TGI [55]?
A: The TGI was > 100 µM.

Q: What does the source list for COP1(=O)OCc2cnccc2O1 (stereo not given)?
A: TGI [1]: > 100 µM; TGI [2]: > 100 µM; TGI [3]: > 100 µM; TGI [4]: > 100 µM; TGI [5]: > 100 µM; TGI [6]: > 100 µM; TGI [7]: > 100 µM; TGI [8]: > 100 µM; TGI [9]: > 100 µM; TGI [10]: > 100 µM; TGI [11]: > 100 µM; TGI [12]: > 100 µM; TGI [14]: > 100 µM; TGI [15]: > 100 µM; TGI [16]: > 100 µM; TGI [17]: > 100 µM; TGI [18]: > 100 µM; TGI [19]: > 100 µM; TGI [20]: > 100 µM; TGI [21]: > 100 µM; TGI [22]: > 100 µM; TGI [23]: > 100 µM; TGI [24]: > 100 µM; TGI [25]: > 100 µM; TGI [28]: > 100 µM; TGI [29]: > 100 µM; TGI [30]: > 100 µM; TGI [31]: > 100 µM; TGI [32]: > 100 µM; TGI [33]: > 100 µM; TGI [34]: > 100 µM; TGI [35]: > 100 µM; TGI [36]: > 100 µM; TGI [37]: > 100 µM; TGI [38]: > 100 µM; TGI [39]: > 100 µM; TGI [40]: > 100 µM; TGI [41]: > 100 µM; TGI [42]: > 100 µM; TGI [43]: > 100 µM; TGI [44]: > 100 µM; TGI [45]: > 100 µM; TGI [46]: > 100 µM; TGI [47]: > 100 µM; TGI [59]: > 100 µM; TGI [48]: > 100 µM; TGI [49]: > 100 µM; TGI [50]: > 100 µM; TGI [51]: > 100 µM; TGI [52]: > 100 µM; TGI [53]: > 100 µM; TGI [54]: > 100 µM; TGI [55]: > 100 µM
